Measured values: ChEMBL document CHEMBL3232938, “Design, synthesis, and biological evaluation of dihydroartemisinin-fluoroquinolone conjugates as a novel type of potential antitubercular agents” (2014)
Values after ≈ are worked out from the molar mass of the structure shown.

Experiments:
Format in all cases: functional
Salmonella [1] = experiment: Antibacterial activity against Salmonella assessed as growth inhibition after 7 days by microtiter plate assay; conditions: 168 h
Pseudomonas aeruginosa [2] = experiment: Antibacterial activity against Pseudomonas aeruginosa assessed as growth inhibition after 7 days by microtiter plate assay; conditions: 168 h
Staphylococcus aureus [3] = experiment: Antibacterial activity against Staphylococcus aureus assessed as growth inhibition after 7 days by microtiter plate assay; conditions: 168 h
Escherichia coli [4] = experiment: Antibacterial activity against Escherichia coli assessed as growth inhibition after 7 days by microtiter plate assay; conditions: 168 h
Escherichia coli [5] = experiment: Antibacterial activity against duck Escherichia coli assessed as growth inhibition after 7 days by microtiter plate assay; conditions: 168 h
Salmonella [6] = experiment: Antibacterial activity against Salmonella assessed as zone of inhibition at 2 ug/ml; conditions: read-out: DIZ
Pseudomonas aeruginosa [7] = experiment: Antibacterial activity against Pseudomonas aeruginosa assessed as zone of inhibition at 2 ug/ml; conditions: read-out: DIZ
Staphylococcus aureus [8] = experiment: Antibacterial activity against Staphylococcus aureus assessed as zone of inhibition at 2 ug/ml; conditions: read-out: DIZ
Escherichia coli [9] = experiment: Antibacterial activity against Escherichia coli assessed as zone of inhibition at 2 ug/ml; conditions: read-out: DIZ
Escherichia coli [10] = experiment: Antibacterial activity against duck Escherichia coli assessed as zone of inhibition at 2 ug/ml; conditions: read-out: DIZ
[11] = test system: Mycobacterium tuberculosis; experiment: Antibacterial activity against Mycobacterium tuberculosis H37Rv ATCC 27294 assessed as growth inhibition after 7 days by microtiter plate assay; conditions: H37Rv ATCC 27294, 168 h
[12] = test system: Mycobacterium tuberculosis; experiment: Antibacterial activity against drug-sensitive 1 ug/ml Mycobacterium tuberculosis clinical isolate 741 assessed as growth inhibition after 7 days by microtiter plate assay; conditions: isolate 741, 168 h
[13] = test system: Mycobacterium tuberculosis; experiment: Antibacterial activity against drug-sensitive 1 ug/ml Mycobacterium tuberculosis clinical isolate 753 assessed as growth inhibition after 7 days by microtiter plate assay; conditions: isolate 753, 168 h
[14] = test system: Mycobacterium tuberculosis; experiment: Antibacterial activity against drug-sensitive 1 ug/ml Mycobacterium tuberculosis clinical isolate 758 assessed as growth inhibition after 7 days by microtiter plate assay; conditions: isolate 758, 168 h
[15] = test system: Mycobacterium tuberculosis; experiment: Antibacterial activity against drug-sensitive 1 ug/ml Mycobacterium tuberculosis clinical isolate 760 assessed as growth inhibition after 7 days by microtiter plate assay; conditions: isolate 760, 168 h
[16] = test system: Mycobacterium tuberculosis; experiment: Antibacterial activity against drug-sensitive 1 ug/ml Mycobacterium tuberculosis clinical isolate 821 assessed as growth inhibition after 7 days by microtiter plate assay; conditions: isolate 821, 168 h

SMILES: O=C(O)c1cn(-c2ccc(F)cc2)c2cc(N3CCNCC3)c(F)cc2c1=O [SARAFLOXACIN]
- MIC (Salmonella [1]): 16 µg/mL (≈ 41.5 µM)
- MIC (Pseudomonas aeruginosa [2]): 2 µg/mL (≈ 5.19 µM)
- MIC (Staphylococcus aureus [3]): 16 µg/mL (≈ 41.5 µM)
- MIC (Escherichia coli [4]): 0.5 µg/mL (≈ 1.3 µM)
- MIC (Escherichia coli [5]): 4 µg/mL (≈ 10.4 µM)
- zone of inhibition at 2 µg/mL (Salmonella [6]): 25 mm
- zone of inhibition at 2 µg/mL (Pseudomonas aeruginosa [7]): 20 mm
- zone of inhibition at 2 µg/mL (Staphylococcus aureus [8]): < 5 mm
- zone of inhibition at 2 µg/mL (Escherichia coli [9]): 24 mm
- zone of inhibition at 2 µg/mL (Escherichia coli [10]): 38 mm
- MIC [11]: 5.19 µM (≈ 2 µg/mL)
- MIC [12]: 16 µg/mL (≈ 41.5 µM)
- MIC [13]: 8 µg/mL (≈ 20.8 µM)
- MIC [14]: 8 µg/mL (≈ 20.8 µM)
- MIC [15]: 8 µg/mL (≈ 20.8 µM)
- MIC [16]: 8 µg/mL (≈ 20.8 µM)
